Structures are written as SMILES.

The experiment deals with T1, K-Ras G12C (Homo sapiens, UniProt P01116, G12C).
T1 construct: This protein contained 188 amino acids in total, including an N-terminal 6-Histidine tag; made in house; host or cells: E. coli BL21
Nature of the experiment: CAF assay (% CAF; method in Example 7, not in this part). The experiment is classed as binding. The following applies: 10 uM compound, 1 h incubation.
On to `C=CC(=O)N1[C@H](C)CN(c2nc(=O)n3c4c(c(-c5ccc(F)cc5F)c(C(F)(F)F)cc24)SC[C@@H]3COC)C[C@@H]1C` (atropisomer, axis not shown) [Example 547, (3S,10R)-7-((3S,5R)-4-acryloyl-3,5-dimethylpiperazin-1-yl)-10-(2,4-difluorophenyl)-3-(methoxymethyl)-9-(trifluoromethyl)-2,3-dihydro-5H-[1,4]thiazino[2,3,4-ij]quinazolin-5-one], for which the “% CAF @ 10 uM, 1h” value was 96.7%.
For the compound `C=CC(=O)N1CCN(c2nc(=O)n3c4c(c(-c5ccc(F)cc5F)c(C(F)(F)F)cc24)SC[C@@H]3COCOC)[C@@H](C)C1` (atropisomer, axis not shown) [Example 548, (3S,10R)-7-((S)-4-acryloyl-2-methylpiperazin-1-yl)-10-(2,4-difluorophenyl)-3-((methoxymethoxy)methyl)-9-(trifluoromethyl)-2,3-dihydro-5H-[1,4]thiazino[2,3,4-ij]quinazolin-5-one], the “% CAF @ 10 uM, 1h” value was 95.7%.
Regarding `C=CC(=O)N1CCN(c2nc(=O)n3c4c(c(-c5ccc(F)cc5F)c(C(F)(F)F)cc24)SC[C@@H]3COCOC)[C@@H](C)C1` (atropisomer, axis not shown) [Example 549, (3S,10S)-7-((S)-4-acryloyl-2-methylpiperazin-1-yl)-10-(2,4-difluorophenyl)-3-((methoxymethoxy)methyl)-9-(trifluoromethyl)-2H-[1,4]thiazino[2,3,4-ij]quinazolin-5(3H)-one], the “% CAF @ 10 uM, 1h” value is 80.2%.
Turning to `C=CC(=O)N1CCN(c2nc(=O)n3c4c(c(-c5cc(Cl)c(F)cc5F)c(C(F)(F)F)cc24)SC[C@@H]3COCOC)[C@@H](C)C1` (atropisomer, axis not shown) [Example 552, (3S,10R)-7-((S)-4-acryloyl-2-methylpiperazin-1-yl)-10-(5-chloro-2,4-difluorophenyl)-3-((methoxymethoxy)methyl)-9-(trifluoromethyl)-2,3-dihydro-5H-[1,4]thiazino[2,3,4-ij]quinazolin-5-one], the “% CAF @ 10 uM, 1h” value was found to be 62.2%.
For the compound `C=CC(=O)N1CCN(c2nc(=O)n3c4c(c(-c5cc(Cl)c(F)cc5F)c(C(F)(F)F)cc24)SC[C@@H]3COCOC)[C@@H](C)C1` (atropisomer, axis not shown) [Example 553, (3S,10S)-7-((S)-4-acryloyl-2-methylpiperazin-1-yl)-10-(5-chloro-2,4-difluorophenyl)-3-((methoxymethoxy)methyl)-9-(trifluoromethyl)-2H-[1,4]thiazino[2,3,4-ij]quinazolin-5(3H)-one], the “% CAF @ 10 uM, 1h” value was 37%.
For `C=CC(=O)N1C[C@H](C)N(c2nc(=O)n3c4c(c(-c5cc(Cl)c(F)cc5F)c(C(F)(F)F)cc24)SC[C@@H]3COCCOC)C[C@H]1C` (atropisomer, axis not shown) [Example 554, (3S,10S)-7-((2S,5R)-4-acryloyl-2,5-dimethylpiperazin-1-yl)-10-(5-chloro-2,4-difluorophenyl)-3-((2-methoxyethoxy)methyl)-9-(trifluoromethyl)-2H-[1,4]thiazino[2,3,4-ij]quinazolin-5(3H)-one] the value was 11.3%; for `C=CC(=O)N1C[C@H](C)N(c2nc(=O)n3c4c(c(-c5cc(Cl)c(F)cc5F)c(C(F)(F)F)cc24)SC[C@@H]3COCCOC)C[C@H]1C` (atropisomer, axis not shown) [Example 555, (3S,10R)-7-((2S,5R)-4-acryloyl-2,5-dimethylpiperazin-1-yl)-10-(5-chloro-2,4-difluorophenyl)-3-((2-methoxyethoxy)methyl)-9-(trifluoromethyl)-2,3-dihydro-5H-[1,4]thiazino[2,3,4-ij]quinazolin-5-one], 67.6%.
In the case of `C=CC(=O)N1C[C@H](C)N(c2nc(=O)n3c4c(c(-c5cc(Cl)c(F)cc5F)c(C(F)(F)F)cc24)SC[C@@H]3CN2CCN(CC(F)F)CC2)C[C@H]1C` (atropisomer, axis not shown) [Example 556, (3S,10R)-7-((2S,5R)-4-acryloyl-2,5-dimethylpiperazin-1-yl)-10-(5-chloro-2,4-difluorophenyl)-3-((4-(2,2-difluoroethyl)piperazin-1-yl)methyl)-9-(trifluoromethyl)-2H-[1,4]thiazino[2,3,4-ij]quinazolin-5(3H)-one], the “% CAF @ 10 uM, 1h” value came out at 73.1%.
For the compound `C=CC(=O)N1C[C@H](C)N(c2nc(=O)n3c4c(c(-c5cc(Cl)c(F)cc5F)c(C(F)(F)F)cc24)SC[C@@H]3CN2CCN(CC(F)F)CC2)C[C@H]1C` (atropisomer, axis not shown) [Example 557, (3S,10S)-7-((2S,5R)-4-acryloyl-2,5-dimethylpiperazin-1-yl)-10-(5-chloro-2,4-difluorophenyl)-3-((4-(2,2-difluoroethyl)piperazin-1-yl)methyl)-9-(trifluoromethyl)-2H-[1,4]thiazino[2,3,4-ij]quinazolin-5(3H)-one], the “% CAF @ 10 uM, 1h” value stood at 21.2%.
Turning to `C=CC(=O)N1[C@H](C)CN(c2nc(=O)n3c4c(c(-c5cc(Cl)c(F)cc5F)c(C(F)(F)F)cc24)SC[C@@H]3COC)C[C@@H]1C` (atropisomer, axis not shown) [Example 563, (3S,10R)-7-((3S,5R)-4-acryloyl-3,5-dimethylpiperazin-1-yl)-10-(5-chloro-2,4-difluorophenyl)-3-(methoxymethyl)-9-(trifluoromethyl)-2,3-dihydro-5H-[1,4]thiazino[2,3,4-ij]quinazolin-5-one], the “% CAF @ 10 uM, 1h” value worked out at 93.9%.
Regarding `C=CC(=O)N1[C@H](C)CN(c2nc(=O)n3c4c(c(-c5cc(Cl)c(F)cc5F)c(C(F)(F)F)cc24)SC[C@@H]3COC)C[C@@H]1C` (atropisomer, axis not shown) [Example 564, (3S,10S)-7-((3S,5R)-4-acryloyl-3,5-dimethylpiperazin-1-yl)-10-(5-chloro-2,4-difluorophenyl)-3-(methoxymethyl)-9-(trifluoromethyl)-2,3-dihydro-5H-[1,4]thiazino[2,3,4-ij]quinazolin-5-one], the “% CAF @ 10 uM, 1h” value is reported as 80.8%.
For `C=CC(=O)N1[C@H](C)CN(c2nc(=O)n3c4c(c(-c5cc(Cl)c(F)cc5F)c(C(F)(F)F)cc24)SC[C@@H]3CN2CCC3(CC2)COC3)C[C@@H]1C` (atropisomer, axis not shown) [Example 565, (3S,10S)-3-((2-oxa-7-azaspiro[3.5]nonan-7-yl)methyl)-7-((3S,5R)-4-acryloyl-3,5-dimethylpiperazin-1-yl)-10-(5-chloro-2,4-difluorophenyl)-9-(trifluoromethyl)-2,3-dihydro-5H-[1,4]thiazino[2,3,4-ij]quinazolin-5-one] the value was 48.3%; for `C=CC(=O)N1[C@H](C)CN(c2nc(=O)n3c4c(c(-c5cc(Cl)c(F)cc5F)c(C(F)(F)F)cc24)SC[C@@H]3CN2CCC3(CC2)COC3)C[C@@H]1C` (atropisomer, axis not shown) [Example 566, (3S,10R)-3-((2-oxa-7-azaspiro[3.5]nonan-7-yl)methyl)-7-((3S,5R)-4-acryloyl-3,5-dimethylpiperazin-1-yl)-10-(5-chloro-2,4-difluorophenyl)-9-(trifluoromethyl)-2,3-dihydro-5H-[1,4]thiazino[2,3,4-ij]quinazolin-5-one], 77.7%; for `C=CC(=O)N1C[C@H](C)N(c2nc(=O)n3c4c(c(-c5cccc6cnn(C)c56)c(Cl)cc24)SC[C@@H]3CN2CCN(CC(F)F)CC2)C[C@H]1C` (atropisomer, axis not shown) [Example 569, (3S,10R)-7-((2S,5R)-4-acryloyl-2,5-dimethylpiperazin-1-yl)-9-chloro-3-((4-(2,2-difluoroethyl)piperazin-1-yl)methyl)-10-(1-methyl-1H-indazol-7-yl)-2,3-dihydro-5H-[1,4]thiazino[2,3,4-ij]quinazolin-5-one], 93.4%.
As to `C=CC(=O)N1C[C@H](C)N(c2nc(=O)n3c4c(c(-c5cccc6cnn(C)c56)c(Cl)cc24)SC[C@@H]3CN2CCN(CC(F)F)CC2)C[C@H]1C` (atropisomer, axis not shown) [Example 570, (3S,10S)-7-((2S,5R)-4-acryloyl-2,5-dimethylpiperazin-1-yl)-9-chloro-3-((4-(2,2-difluoroethyl)piperazin-1-yl)methyl)-10-(1-methyl-1H-indazol-7-yl)-2,3-dihydro-5H-[1,4]thiazino[2,3,4-ij]quinazolin-5-one], the “% CAF @ 10 uM, 1h” value was determined as 0%.
For `C=CC(=O)N1[C@H](C)CN(c2nc(=O)n3c4c(c(-c5ccc(F)cc5F)c(C(F)(F)F)cc24)SC[C@@H]3CN2CCC3(CC2)COC3)C[C@@H]1C` (atropisomer, axis not shown) [Example 576, (3S,10S)-3-(2-oxa-7-azaspiro[3.5]nonan-7-ylmethyl)-7-((3S,5R)-4-acryloyl-3,5-dimethylpiperazin-1-yl)-10-(2,4-difluorophenyl)-9-(trifluoromethyl)-2H-[1,4]thiazino[2,3,4-ij]quinazolin-5(3H)-one], the “% CAF @ 10 uM, 1h” value was determined as 80.5%.
For `C=CC(=O)N1[C@H](C)CN(c2nc(=O)n3c4c(c(-c5ccc(F)cc5F)c(C(F)(F)F)cc24)SC[C@@H]3CN2CCC3(CC2)COC3)C[C@@H]1C` (atropisomer, axis not shown) [Example 577, (3S)-3-(2-oxa-7-azaspiro[3.5]nonan-7-ylmethyl)-7-((3S,5R)-4-acryloyl-3,5-dimethylpiperazin-1-yl)-10-(2,4-difluorophenyl)-9-(trifluoromethyl)-2H-[1,4]thiazino[2,3,4-ij]quinazolin-5(3H)-one] the value was 74.8%; for `C=CC(=O)N1CCN(c2nc(=O)n3c4c(c(-c5ccc(F)cc5F)c(C(F)(F)F)cc24)SC[C@@H]3COC)CC1` (atropisomer, axis not shown) [Example 578, (3S,10R)-7-(4-acryloylpiperazin-1-yl)-10-(2,4-difluorophenyl)-3-(methoxymethyl)-9-(trifluoromethyl)-2,3-dihydro-5H-[1,4]thiazino[2,3,4-ij]quinazolin-5-one], 98%.

These data come from patent publication US20230107642A1 (Erasca, Inc., priority 2020, published 2023).
